Data on three compounds can be found in patent US20190218226A1, “PRODRUGS OF ANTICANCER AGENTS INDOTECAN AND INDIMITECAN” (Purdue Research Foundation, priority 2016, published 2019).

Read-outs that look alike come from different tables or passages of the source.

One series has as its system SF-539. The series is described as follows: NCI60 antiproliferative screen, CNS SF-539. Type of series: cell-based, human. The following applies: Homo sapiens; SF-539, 48 h, sulforhodamine B; read-out: Cytotoxicity (GI50) CNS SF-539. How it is done: (§1) All of the indenoisoquinolines were tested for antiproliferative activity in the National Cancer Institute's 60 cell line screen (NCI60). The cells were incubated with the tested compounds at 100, 10, 1, 0.1, and 0.01 μM concentrations for 48 h before treatment with sulforhodamine B dye. Optical densities were recorded, and their ratios relative to that of the control were plotted as percentage growth against the log 10 of the tested compound concentrations. The concentration that corresponds to 50% growth inhibition (GI50) is calculated by interpolation between the points located above and below the 50% percentage growth. The mean-graph midpoint (MGM) is an estimated average of the GI50 values derived from the NCI collection of 60 human cancer cell lines, where during the MGM calculation, anticancer agents with GI50 values that are outside the testing range of 0.01-100 μM are arbitrarily assigned the values of 0.01 and 100 μM, respectively. […] Also, the GI50 values of many of the substances vs. individual human cancer cell lines are below the lowest concentration used (0.01 μM) in the standard NCI testing protocol. […] For example, the MGM cytotoxicity values of 9, 15-17, and 19 are all very close to each other, but the Top1 inhibitory activities range from +++(+) to 0.

A further series relates to HCT-116. The series is described as follows: NCI60 antiproliferative screen, colon HCT-116. Format: cell-based, human. The following applies: Homo sapiens; HCT-116, 48 h, sulforhodamine B; read-out: Cytotoxicity (GI50) Colon HCT-116. How it is done:
as §1

Another series concerns the target T1, Human recombinant Top1 (Homo sapiens, UniProt P11387).
T1 construct: made in house
T1 sequence (P11387 1-765): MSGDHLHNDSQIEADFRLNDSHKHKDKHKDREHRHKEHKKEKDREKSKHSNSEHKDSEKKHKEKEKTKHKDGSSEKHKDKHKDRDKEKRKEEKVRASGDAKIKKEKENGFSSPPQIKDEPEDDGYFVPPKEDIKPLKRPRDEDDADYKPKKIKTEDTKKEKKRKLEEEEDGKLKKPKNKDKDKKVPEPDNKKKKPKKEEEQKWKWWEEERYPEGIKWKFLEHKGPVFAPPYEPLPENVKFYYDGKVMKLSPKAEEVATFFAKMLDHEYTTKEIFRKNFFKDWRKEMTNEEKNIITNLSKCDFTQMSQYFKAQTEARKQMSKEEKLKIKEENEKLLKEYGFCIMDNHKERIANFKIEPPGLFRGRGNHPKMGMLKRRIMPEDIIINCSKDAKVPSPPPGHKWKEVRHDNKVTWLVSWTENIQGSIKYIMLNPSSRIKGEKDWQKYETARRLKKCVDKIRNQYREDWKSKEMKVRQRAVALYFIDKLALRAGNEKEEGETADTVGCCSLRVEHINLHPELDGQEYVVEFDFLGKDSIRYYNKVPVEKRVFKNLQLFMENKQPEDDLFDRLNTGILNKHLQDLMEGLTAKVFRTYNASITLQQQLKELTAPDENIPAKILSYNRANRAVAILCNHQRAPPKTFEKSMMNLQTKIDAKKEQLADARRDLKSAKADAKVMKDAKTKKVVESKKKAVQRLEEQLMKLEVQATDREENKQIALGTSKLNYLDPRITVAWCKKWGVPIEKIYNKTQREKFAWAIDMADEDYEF
The series is described as follows: Top1-mediated DNA cleavage assay. More on the design: key to Top1 inhibitory activity (level): 0, no detectable activity; +, weak activity; ++, similar activity to compound 4; +++, greater activity than 4; ++++, equipotent with 1; ++(+) would be between ++ and +++. Conditions: for Top 1 Cleavage: graded relative to 1 μM camptothecin; for Top1 inhibitory activity (level): scored relative to compounds 1 and 4. Format: biochemical. How it is done: All of the new indenoisoquinoline derivatives were tested in Top1-mediated DNA cleavage assays. For this purpose, a ^32P 3′-end labeled 117-bp DNA fragment was incubated with Top1 at four concentrations of a tested compound. The DNA fragments were separated on 20% PAGE denaturing gels. The Top1 inhibitory activities were assigned on the basis of the visual inspection of the number and intensities of the gel bands corresponding to Top1-mediated DNA cleavage fragments and scored relative to the Top1 inhibitory activity of compounds 1 and 4. Results are expressed in semiquantitative fashion: 0, no detectable activity; +, weak activity; ++, similar activity to compound 4; +++, greater activity than 4; ++++, equipotent with 1. Ambiguous scores (e.g., between two values) are designated with parentheses (e.g., ++(+) would be between ++ and +++). […] After conversion of the hydroxyl to a dimethylcarbamate, the observed Top1 inhibitory activity increased from ++(+) for compound 8 to +++ for compound 10. Introduction of an acetyl group at the 0-2 position yielded compound 11, which was also a Top1 poison with activity at the ++ level. Subsequently, several hydrophobic substituents were attached to the 0-2 position.
Topoisomerase I-Mediated DNA Cleavage Reactions.
Human recombinant Top1 was purified from baculovirus as previously described (Morrell, A., et al., J. Med. Chem. 2007, 50, 2040-2048). DNA cleavage reactions were prepared as previously reported with the exception of the DNA substrate (Strumberg, D., et al., J. Med. Chem. 1999, 42, 446-457). Briefly, a 117-bp DNA oligonucleotide (Integrated DNA Technologies) encompassing the previously identified Top1 cleavage sites in the 161-bp fragment from pBluescript SK(−) phagemid DNA was employed. This 117-bp oligonucleotide contains a single 5′-cytosine overhang, which was 3′-end-labeled by fill-in reaction with [α-^32P]dGTP in React 2 buffer (50 mM Tris-HCl, pH 8.0, […], 50 mM NaCl) with 0.5 unit of DNA polymerase I (Klenow fragment, New England BioLabs). Unincorporated [^32P]dGTP was removed using mini Quick Spin DNA columns (Roche, Indianapolis, Ind.), and the eluate containing the 3′-end-labeled DNA substrate was collected. Approximately 2 nM radiolabeled DNA substrate was incubated with recombinant Top1 in 20 μL of reaction buffer [10 mM Tris-HCl (pH 7.5), 50 mM KCl, 5 mM MgCl2, 0.1 mM EDTA, and 15 μg/mL BSA] at 25° C. for 20 min in the presence of various concentrations of compounds. The reactions were terminated by adding SDS (0.5% final concentration) followed by the addition of two volumes of loading dye (80% formamide, 10 mM sodium hydroxide, 1 mM sodium EDTA, 0.1% xylene cyanol, and 0.1% bromophenol blue). Aliquots of each reaction mixture were subjected to 20% denaturing PAGE. Gels were dried and visualized by using a phosphoimager and ImageQuant software (Molecular Dynamics). For simplicity, cleavage sites were numbered as previously described in the 161-bp fragment.

The next series has as its system OVCAR-3. The series is described as follows: NCI60 antiproliferative screen, ovarian OVCAR-3. The following applies: Homo sapiens; OVCAR-3, 48 h, sulforhodamine B; read-out: Cytotoxicity (GI50) Ovarian OVCAR-3. Format: cell-based, human. How it is done: as §1
The subject of another series is DU-145. As to the kind of experiment: NCI60 antiproliferative screen, prostate DU-145. Type of series: cell-based, human. The following applies: Homo sapiens; DU-145, 48 h, sulforhodamine B; read-out: Cytotoxicity (GI50) prostate DU-145. How it is done:
as §1

Series [1] deals with all human cancer cell lines successfully tested (NCI60). The series is described as follows: NCI60 mean graph midpoint for growth inhibition. Format: cell-based. How it is done: as §1
A further series concerns SN12C. As to the kind of experiment: NCI60 antiproliferative screen, renal SN12C. The following applies: Homo sapiens, 48 h, sulforhodamine B, read-out: Cytotoxicity (GI50) renal SN12C. Type of series: cell-based, human. How it is done: as §1
The subject of another series is UACC-62. As to the kind of experiment: NCI60 antiproliferative screen, melanoma UACC-62. Type of series: cell-based, human. The following applies: Homo sapiens; UACC-62, 48 h, sulforhodamine B; read-out: Cytotoxicity (GI50) melanoma UACC-62. How it is done: as §1
A further series relates to MCF-7. As to the kind of experiment: NCI60 antiproliferative screen, breast MCF-7. Format: cell-based, human. The following applies: Homo sapiens, MCF7; MCF-7, 48 h, sulforhodamine B; read-out: Cytotoxicity (GI50) breast MCF-7. How it is done:
as §1

For another series, the system named is HOP-62. As to the kind of experiment: NCI60 antiproliferative screen, lung HOP-62. Format: cell-based, human. The following applies: Homo sapiens; HOP-62, 48 h, sulforhodamine B; read-out: Cytotoxicity (GI50) lung HOP-62. How it is done:
as §1

Setting [2] is: all human cancer cell lines successfully tested, ± standard error, read-out: MGM (mean graph midpoint for growth inhibition).

As to `COc1cc2c(=O)n(CCCN3CCOCC3)c3c(c2cc1OC(=O)N(C)C)C(=O)c1cc2c(cc1-3)OCO2` [Compound 10, 3-Methoxy-6-(3-morpholinopropyl)-5,12-dioxo-6,12-dihydro-5H-[1,3]dioxolo[4′,5′:5,6]indeno[1,2-c]isoquinolin-2-yl Dimethylcarbamate], the melting point (commonly the temperature, or range, at which the solid turns liquid) was 268 to 270 °C (dec.). Also, the GI50 – broadly, the concentration giving 50% growth inhibition – in the series with SF-539 amounted to 1860 nM. In addition, the GI50 in the series with HCT-116 was found to be 6070 nM. In addition, at Human recombinant Top1, the “Top1 inhibitory activity (in words)” value is recorded as “slight improvement in Top1 inhibitory activity”; the “Top 1 Cleavage” value is “+++ (+++, between 75 and 95% activity)”; the “Top1 inhibitory activity (level)” value is “+++”. For the same compound, in the series on OVCAR-3, the GI50 came out at 12000 nM. The GI50 in the series on DU-145 came to 1550 nM. The “GI50's against various cell lines (range in words)” value in series [1] (NCI60) is on record as “micromolar range”. In addition, the mean GI50 across NCI60 cell lines (MGM) in series [1] (setting [2]) came to 3460 ± 999 nM. Also, the GI50 with SN12C came to 2400 nM. Moreover, the GI50 in the series with UACC-62 stood at 4470 nM. Moreover, the GI50 in the series on MCF-7 turned out to be 22 nM. Moreover, the GI50 in the series with HOP-62 was 1700 nM.

On to `COc1cc2c(=O)n(CCCN3CCOCC3)c3c(c2cc1OC(=O)c1cccnc1)C(=O)c1cc2c(cc1-3)OCO2` [Compound 14, 3-Methoxy-6-(3-morpholinopropyl)-5,12-dioxo-6,12-dihydro-5H-[1,3]dioxolo[4′,5′:5,6]indeno[1,2-c]isoquinolin-2-yl Nicotinate], for which the melting point is 277 to 279 °C (dec.). Further, in the series with SF-539, the GI50 was less than 10 nM. In addition, the GI50 with HCT-116 amounted to 30 nM. Besides, at Human recombinant Top1, the “Top1 inhibitory activity (in words)” value is reported as “slight improvement in Top1 inhibitory activity”; the “Top 1 Cleavage” value was “+++ (+++, between 75 and 95% activity)”; the “Top1 inhibitory activity (level)” value was “+++”. In addition, the GI50 in the series with OVCAR-3 was 295 nM. For the same compound, the GI50 in the series on DU-145 came out at 13 nM. Besides, the mean GI50 across NCI60 cell lines (MGM) in series [1] (Homo sapiens, NCI60, read-out: MGM value) was found to be 158 ± 65 nM. Besides, the mean GI50 across NCI60 cell lines (MGM) in series [1] (setting [2]) came to 158 ± 65 nM. Also, the GI50 with SN12C was less than 10 nM. In addition, the GI50 in the series with UACC-62 was 22 nM. In addition, in the series with MCF-7, the GI50 is less than 10 nM. Further, the GI50 in the series on HOP-62 was 12 nM.

Consider `COc1cc2c3c(n(CCCN4CCOCC4)c(=O)c2cc1OC(=O)c1cccnc1)-c1cc2c(cc1C3=O)OCO2` [Compound 19, 2-Methoxy-6-(3-morpholinopropyl)-5,12-dioxo-6,12-dihydro-5H-[1,3]dioxolo[4′,5′:5,6]indeno[1,2-c]isoquinolin-3-yl Nicotinate], for which the melting point is 274 to 276 °C (dec.). Further, the GI50 with SF-539 was less than 10 nM. The GI50 with HCT-116 is less than 10 nM. Further, the “Top 1 Cleavage” value on Human recombinant Top1 is “+ (+, between 20 and 50% activities)”. The GI50 in the series with OVCAR-3 worked out at 15 nM. Further, the GI50 in the series on DU-145 is less than 10 nM. In addition, in [1] (setting [2]), the mean GI50 across NCI60 cell lines (MGM) came out at 35 nM. The GI50 in the series on SN12C was less than 10 nM. Also, in the series with UACC-62, the GI50 was less than 10 nM. Besides, the GI50 in the series with MCF-7 is less than 10 nM. Besides, the GI50 in the series with HOP-62 was less than 10 nM.
